The values below come from PubChem BioAssay AID248 (DTP/NCI, 2004).

Values joined by “and” are separate entries in the source; they are usually repeats but may differ in a detail not shown here. Equal entries are not always repeated. Toxic doses and inconclusive results are not listed.

This test has as its system L1210 leukemia ip in BDF1 mice, survival T/C. Nature of the test: NCI In Vivo Anticancer Drug Screen. Data for tumor model L1210 Leukemia (intraperitoneal) in B6D2F1 (BDF1) mice. To be noted: endpoint: mean survival time, higher = longer survival. The gist of the method: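 Antitumor effect is assessed in tumor-bearing animals. Survival in the compound arm is compared with a vehicle-dosed control arm and expressed as their quotient.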

The mark [1] stands for this setting: dose: 100.0 mg/kg/injection, schedule: Q04DX003 (ip), vehicle: Klucel (hydroxypropylcellulose) (HPC).
[2] abbreviates: dose: 200.0 mg/kg/injection, schedule: Q04DX003 (ip), vehicle: Klucel (hydroxypropylcellulose) (HPC).
[3] abbreviates: dose: 400.0 mg/kg/injection, schedule: Q04DX003 (ip), vehicle: Klucel (hydroxypropylcellulose) (HPC).

Regarding `CCC[n+]1ccc(C#N)cc1`, the T/C (dose: 75.0 mg/kg/injection, schedule: Q01DX001 (ip), vehicle: saline) was 106 % of control and the T/C (dose: 150.0 mg/kg/injection, schedule: Q01DX001 (ip), vehicle: saline) was 89 % of control.

Turning to `CSc1cc(C(=O)Nc2ccc(C3=NCCN3)cc2)ccc1C(=O)Nc1ccc(C2=NCCN2)cc1`, the T/C by setting is: (dose: 0.5 mg/kg/injection, schedule: Q01DX Z (ip), vehicle: carboxymethylcellulose (CMC)) 109 % of control; (dose: 0.62 mg/kg/injection, schedule: Q01DX015 (ip), vehicle: methylcellulose (MC)) 112 % of control; (dose: 1.25 mg/kg/injection, schedule: Q01DX015 (ip), vehicle: methylcellulose (MC)) 108 % of control; (dose: 3.75 mg/kg/injection, schedule: Q01DX Z (ip), vehicle: carboxymethylcellulose (CMC)) 203 % of control; (dose: 7.5 mg/kg/injection, schedule: Q01DX Z (ip), vehicle: carboxymethylcellulose (CMC)) 231 % of control; (dose: 10.0 mg/kg/injection, schedule: Q01DX015 (ip), vehicle: methylcellulose (MC)) 231 % of control. Also, the T/C is 236 % of control (dose: 10.0 mg/kg/injection, schedule: Q01DX Z (ip), vehicle: carboxymethylcellulose (CMC)); 280 % of control (dose: 15.0 mg/kg/injection, schedule: Q01DX Z (ip), vehicle: carboxymethylcellulose (CMC)); 286 % of control (dose: 20.0 mg/kg/injection, schedule: Q01DX015 (ip), vehicle: methylcellulose (MC)); 287 % of control (dose: 20.0 mg/kg/injection, schedule: Q01DX Z (ip), vehicle: carboxymethylcellulose (CMC)); 178 % of control (dose: 30.0 mg/kg/injection, schedule: Q01DX Z (ip), vehicle: carboxymethylcellulose (CMC)); 221 % of control (dose: 40.0 mg/kg/injection, schedule: Q01DX015 (ip), vehicle: methylcellulose (MC)). Besides, the T/C (dose: 40.0 mg/kg/injection, schedule: Q01DX Z (ip), vehicle: carboxymethylcellulose (CMC)) is 168 % of control; the T/C (dose: 50.0 mg/kg/injection, schedule: Q01DX Z (oral), vehicle: carboxymethylcellulose (CMC)) is 102 % of control; the T/C (dose: 100.0 mg/kg/injection, schedule: Q01DX Z (oral), vehicle: carboxymethylcellulose (CMC)) is 100 % of control; the T/C (dose: 150.0 mg/kg/injection, schedule: Q01DX001 (ip), vehicle: methylcellulose (MC)) is 167 % of control; the T/C (dose: 200.0 mg/kg/injection, schedule: Q01DX Z (oral), vehicle: carboxymethylcellulose (CMC)) is 104 % of control; the T/C (dose: 400.0 mg/kg/injection, schedule: Q01DX Z (oral), vehicle: carboxymethylcellulose (CMC)) was 95 % of control.

For `OC(CBr)C(O)CBr` (stereo unspecified), the T/C was 101 % of control (dose: 12.5 mg/kg/injection, schedule: Q01DX009 (ip), vehicle: saline); 97 % of control (dose: 25.0 mg/kg/injection, schedule: Q01DX009 (ip), vehicle: saline); 97 % of control (dose: 50.0 mg/kg/injection, schedule: Q01DX009 (ip), vehicle: saline).

For the compound `O=S(=O)(Nc1nccs1)c1ccc(N(CCCl)CCCl)cc1`, the T/C (dose: 50.0 mg/kg/injection, schedule: Q01DX009 (ip), vehicle: Klucel (hydroxypropylcellulose) (HPC)) was 116 % of control.

Consider `CN1CCOC1=Nc1cccc2c1CCCC2`, for which the T/C is 96 % of control (dose: 50.0 mg/kg/injection, schedule: Q01DX009 (ip), vehicle: other); 101 % of control (dose: 100.0 mg/kg/injection, schedule: Q01DX009 (ip), vehicle: other); 95 % of control (dose: 400.0 mg/kg/injection, schedule: Q01DX009 (ip), vehicle: other).

With `Nc1c(Br)cc(Br)c2c1-c1ccccc1C2=O`, the T/C (dose: 100.0 mg/kg/injection, schedule: Q01DX001 (ip), vehicle: carboxymethylcellulose (CMC)) was 98 % of control; the T/C (dose: 200.0 mg/kg/injection, schedule: Q01DX001 (ip), vehicle: carboxymethylcellulose (CMC)) is 104 % of control; the T/C (dose: 400.0 mg/kg/injection, schedule: Q01DX001 (ip), vehicle: carboxymethylcellulose (CMC)) was 102 % of control.

On to `CC(/C=N/O)=C1C=CC=C1`, for which the T/C (dose: 100.0 mg/kg/injection, schedule: Q01DX001 (ip), vehicle: Klucel (hydroxypropylcellulose) (HPC)) is 94 % of control; the T/C (dose: 100.0 mg/kg/injection, schedule: Q01DX009 (ip), vehicle: Klucel (hydroxypropylcellulose) (HPC)) is 98 % of control; the T/C under setting [1] was 102 % of control; the T/C (dose: 200.0 mg/kg/injection, schedule: Q01DX001 (ip), vehicle: Klucel (hydroxypropylcellulose) (HPC)) was 92 % of control; the T/C (dose: 200.0 mg/kg/injection, schedule: Q01DX009 (ip), vehicle: Klucel (hydroxypropylcellulose) (HPC)) was 100 % of control; the T/C under setting [2] is 98 % of control. For the same compound, the T/C is 97 % of control (dose: 400.0 mg/kg/injection, schedule: Q01DX001 (ip), vehicle: Klucel (hydroxypropylcellulose) (HPC)); 105 % of control (dose: 400.0 mg/kg/injection, schedule: Q01DX009 (ip), vehicle: Klucel (hydroxypropylcellulose) (HPC)); 102 % of control under setting [3].

`FC(F)(F)c1cccc(N2CCN(c3c4c(nc5ccccc35)CCCCC4)CC2)c1`: the T/C by setting is: (dose: 100.0 mg/kg/injection, schedule: Q01DX001 (ip), vehicle: saline) 93 % of control; (dose: 200.0 mg/kg/injection, schedule: Q01DX001 (ip), vehicle: saline) 95 % of control; (dose: 400.0 mg/kg/injection, schedule: Q01DX001 (ip), vehicle: saline) 95 % of control.

Take `CCOc1ccc(N=Cc2cccc([N+](=O)[O-])c2)cc1`: the T/C runs as follows: (dose: 100.0 mg/kg/injection, schedule: Q01DX001 (ip), vehicle: saline with Tween-80) 103 % of control; (dose: 100.0 mg/kg/injection, schedule: Q01DX009 (ip), vehicle: saline with Tween-80) 107 % of control and 90 % of control; (dose: 200.0 mg/kg/injection, schedule: Q01DX001 (ip), vehicle: saline with Tween-80) 90 % of control; (dose: 200.0 mg/kg/injection, schedule: Q01DX009 (ip), vehicle: saline with Tween-80) 97 % of control and 90 % of control; (dose: 400.0 mg/kg/injection, schedule: Q01DX001 (ip), vehicle: saline with Tween-80) 99 % of control; (dose: 400.0 mg/kg/injection, schedule: Q01DX009 (ip), vehicle: saline with Tween-80) 100 % of control and 91 % of control.

Consider `O=[N+]([O-])c1ccc(F)c(Cl)c1F`, for which the T/C is 103 % of control (dose: 10.0 mg/kg/injection, schedule: Q04DX003 (ip), vehicle: Klucel (hydroxypropylcellulose) (HPC)); 106 % of control (dose: 20.0 mg/kg/injection, schedule: Q04DX003 (ip), vehicle: Klucel (hydroxypropylcellulose) (HPC)); 99 % of control (dose: 40.0 mg/kg/injection, schedule: Q04DX003 (ip), vehicle: Klucel (hydroxypropylcellulose) (HPC)).

Regarding `CCCCCCCCCCOC(=S)S`, the T/C reads like this: (dose: 50.0 mg/kg/injection, schedule: Q04DX002 (sc), vehicle: olive oil, sesame oil, peanut oil) 100 % of control; (dose: 100.0 mg/kg/injection, schedule: Q04DX002 (sc), vehicle: olive oil, sesame oil, peanut oil) 116 % of control; (dose: 200.0 mg/kg/injection, schedule: Q04DX002 (sc), vehicle: olive oil, sesame oil, peanut oil) 106 % of control.

Consider `O=C(CCl)NC1CCC(CC2CCCCC2)CC1` (stereo unspecified), for which the T/C is 99 % of control under setting [1], 93 % of control under setting [2] and 89 % of control under setting [3].

As to `CC1(c2ccccc2)NC(=O)N(CCC#N)C1=O` (stereo unspecified), the T/C was 100 % of control (dose: 100.0 mg/kg/injection, schedule: Q04DX003 (ip), vehicle: acetone); 90 % of control (dose: 200.0 mg/kg/injection, schedule: Q04DX003 (ip), vehicle: acetone); 104 % of control (dose: 400.0 mg/kg/injection, schedule: Q04DX003 (ip), vehicle: acetone).

Consider `COC(=O)/C=C(\C(=O)OC)c1c(-c2ccccc2)[nH]c2ccccc12`, for which the T/C runs as follows: (dose: 75.0 mg/kg/injection, schedule: Q01DX001 (ip), vehicle: carboxymethylcellulose (CMC)) 92 % of control; (dose: 150.0 mg/kg/injection, schedule: Q01DX001 (ip), vehicle: carboxymethylcellulose (CMC)) 89 % of control; (dose: 300.0 mg/kg/injection, schedule: Q01DX001 (ip), vehicle: carboxymethylcellulose (CMC)) 94 % of control.

`COc1cc(C=O)cc(OC)c1OC`: the T/C reads like this: under setting [1], 93 % of control; under setting [2], 93 % of control; under setting [3], 87 % of control.
